Data from patent publication US20200278355A1, “CONJUGATED PROTEINS AND USES THEREOF” (THE SCRIPPS RESEARCH INSTITUTE, priority 2017, published 2020).

Target: T1, RBM45-NR0B1 interaction (Homo sapiens, UniProt P51843)
T1 construct: endogenous in cells; host or cells: H460 cells (also H2122 and A549) stably expressing FLAG-RBM45 by lentiviral transduction (FLAG-pLJM1)
T1 sequence (P51843 1-470): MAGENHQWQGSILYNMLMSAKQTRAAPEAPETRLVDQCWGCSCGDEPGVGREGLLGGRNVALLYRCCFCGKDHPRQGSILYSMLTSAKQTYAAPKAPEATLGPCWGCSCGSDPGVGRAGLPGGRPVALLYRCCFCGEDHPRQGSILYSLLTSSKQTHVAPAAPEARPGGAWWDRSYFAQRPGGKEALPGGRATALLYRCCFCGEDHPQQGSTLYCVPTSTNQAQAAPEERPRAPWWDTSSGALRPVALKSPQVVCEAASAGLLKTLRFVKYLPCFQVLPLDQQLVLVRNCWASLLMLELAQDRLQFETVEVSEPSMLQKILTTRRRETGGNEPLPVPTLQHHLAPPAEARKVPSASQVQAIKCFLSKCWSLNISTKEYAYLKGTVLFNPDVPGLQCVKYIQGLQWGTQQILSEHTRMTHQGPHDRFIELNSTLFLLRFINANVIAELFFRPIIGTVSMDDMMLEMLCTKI
Test: RBM45-NR0B1 interaction in NSCLC cells stably expressing FLAG-RBM45 (FLAG immunoprecipitation)
Type: cell-based
Settings: 3 h; for blockade of the RBM45-NR0B1 interaction: H460 cells; for blockade of NR0B1 binding to FLAG-RBM45: H2122 and A549 cells
Description: FIG. 6A-FIG. 6F show characterization of NR0B1 ligands in KEAP1-mutant NSCLC cells. […] Dashed lines designate R values≥3 (DMSO/compound), which was used as a cutoff to define cysteines liganded by the indicated compounds. Insets show MS1 profiles for C274 in NR0B1 for DMSO (blue) versus compound (red) treatment. Data are from individual experiments representative of at least three biological replicates. […] (See also Table 5). […] H460 cells stably expressing FLAG-RBM45 were incubated with indicated compounds for 3 h, whereupon FLAG immunoprecipitates were performed and analyzed by immunoblotting. […] Experiments performed as described in (C). […] Dashed line designates R values (light/heavy) of <8, which was used as a cutoff for fast-turnover proteins. […] Charts comparing fraction of NRF2-regulated genes (as determined by RNAseq) for which the corresponding proteins are designated as fast or slow turnover (as determined in G) further divided into groups showing reduced expression (left) or not (right) on day 1 following NRF2 knockdown (as determined by isoTOP-ABPP).
FIG. 12A-FIG. 12G show characterization of NR0B1 ligands in Keap1-mutant NSCLC cells. […] Data obtained from isoTOP-ABPP experiments of H460 cells treated with compound (red traces) or DMSO (blue traces) for 3 h. […] Shown are MS1 profiles for quantified cysteines in NR0B1 following treatment with BPK-29 (40 μM, red; top) BPK-26 (40 μM, red; bottom) or DMSO (blue) for 3 h. […] KEAP1-null HEK293T cells stably expressing FLAG-RBM45 or FLAG-SNW1 were incubated with the indicated compounds for 3 h, after which FLAG immunoprecipitates were prepared from cell lysates. Immunoprecipitates and lysates were analyzed by immunoblotting for the indicated proteins. Dashed lines represent a lane that was cropped from this immunoblot. […] H2122 or A549 cells stably expressing FLAG-RBM45 were incubated with the indicated compounds for 3 h, after which FLAG immunoprecipitates were prepared. Immunoprecipitates and lysates were analyzed as described in (E). […] H2122 cells stably expressing FLAG-RBM45 or A549 cells stably expressing FLAG-SNW1 were incubated with indicated compounds for 3 h and FLAG immunoprecipitates were prepared and analyzed as described in (E).
Confluent 10 cm plates of indicated cell lines were rinsed once with warm PBS and incubated in serum/dye-free RPMI with indicated compounds or vehicle for 3 h at 37° C. Cells were washed once ice-cold PBS and snap frozen.
Cells were rinsed once with ice-cold PBS, and lysed by sonication in Triton IP buffer. Lysates were clarified by centrifugation at 16,000×g for 10 min. […] Proteins were resolved by SDS-PAGE, analyzed by immunoblotting and relative band intensities were quantified using ImageJ software.

Compound	blockade of the RBM45-NR0B1 interaction	blockade of NR0B1 binding to FLAG-RBM45
O=C(c1ccc(N2CCOCC2)cc1)N1CCCC(N(Cc2ccccc2)C(=O)CCl)CC1 (stereo not shown) [BPK-29, N-benzyl-2-chloro-N-(1-(4-morpholinobenzoyl)azepan-4-yl)acetamide]	block	block
O=C(CCl)N(Cc1cccc(Cl)c1F)c1ccc(Cl)nc1 [BPK-26, 2-chloro-N-(3-chloro-2-fluorobenzyl)-N-(6-chloropyridin-3-yl)acetamide]	block	block
